Results reported in US6686450B1, “Immunosuppressive agents that inhibit calcineurin function and uses of these agents” (Massachusetts Institute of Technology, priority 1998, dated 2004).
“Also recorded” adds a separate entry of the source.

Assays:
Format in all cases: cell-based
[1] = target: T1, interaction between Cabin 1-14 and full length calcineurin β2 (H160N) (Homo sapiens, UniProt P16298, H160N); assay: mammalian two-hybrid assay in Jurkat T cells (luciferase reporter); settings: Jurkat T cells, PMA/ionomycin stimulated, drug added 30 min prior to stimulation
T1 construct: expressed in transfected cells; host or cells: Jurkat T cells
Excerpt: A mammalian two-hybrid system was established in Jurkat T cells by fusing calcineurin with the Gal4 DNA binding domain and Cabin 1-14 with the VP16 activation domain (Hsu et al., Proc. Natl. Acid Sci. USA 91:3181-3185 (1994)). The fusion plasmids for mammalian two-hybrid assays were constructed as follows: The cDNAs of calcineurin Aβ2 wild type and H160N mutant were fused to the GAL4 DB in the pM vector (obtained from Clontech, Palo Alto, Calif.) (pMCNβ2 and PMCNβ2 (H160N), and the cDNA of Cabin 1-14 was fused to the VP16 AD in the pVP16 vector (pVPCabin 1-14). Jurkat T cells were transfected with 5 μg of pMCβ2 or pMCβ2 (H160N), 5 μg of pVPCabin 1-14, 1 μg of pCMV-βGal, and 2 μg of pg5Luc, a luciferase reporter plasmid containing GAL4 promoter, by electroporation (960 μF, 250V). After 48 hr, cells were stimulated with 40 nM PMA and 2.5 μM ionomycin, either alone or in combination, for 6 hr before luciferase activity was measured for each sample. The luciferase reporter gene assay reagents were obtained from Promega, Madison, Wis., and the assay was performed per manufacturer's instructions. […] Where appropriate, the transfection efficiency was measured by co-transfecting 2 μg of CMV-driven β-galactosidase expression vector and measuring enzymatic β-galactosidase activity (Ausubel et al., Current Protocols in Molecular Biology (John Wiley & Sons, Inc., New York, 1994)).

IL-2 promoter [2] = assay: IL-2 promoter activation in T cells expressing calcineurin mutant; settings: expressed in T cells
IL-2 promoter [3] = assay: IL-2 promoter luciferase reporter gene assay in Jurkat T cells; settings: PMA and ionomycin

bisindolylmaleimide
sensitivity of interaction between full length calcineurin β2 (H160N) and Cabin 1-14 to drug [1]: inhibited the interaction between calcineurin and Cabin 1-14 in a dose-dependent manner; also recorded: sensitive

H 160N: catalytically inactive mutant of the β2 isoform of calcineurin, used as bait
blocking of PMA and ionomycin-stimulated IL-2 promoter activation (IL-2 promoter [2]): over 60%

cyclosporin A [CsA]
sensitivity of interaction between full length calcineurin β2 (H160N) and Cabin 1-14 to drug [1]: sensitive

Cabin 1: isolated calcineurin binding polypeptide, amino acid sequence SEQ ID NO:1, 2220 amino acids
effect on IL-2 reporter gene activation (IL-2 promoter [3]): lower potency | effect on IL-2 reporter gene activation (IL-2 promoter [3]; listed as Cabin1): inhibit
